Experimental findings from patent US10208071B2, “Use of agonists of formyl peptide receptor 2 for treating ocular inflammatory diseases” (Allergan, Inc., priority 2013, dated 2019) are described below.

For test [1], the target named is T1, FPR2 (Homo sapiens (Human), UniProt P25090). The test can be described thus: FPR2 Ga16-CHO EC50 (efficacy), Tables 1-3. As to conditions: for FPR2 Ga16-CHO (efficacy): efficacy in parentheses. It is filed as cell-based.
Test [2] deals with T1, FPR2. The test can be described thus: FLIPR Ca+2 response, HEK-Gα16 cells stably expressing the human FPR2 receptor (Table 4). Format: cell-based. To be noted: for FPR2 (efficacy): efficacy in parentheses. In short, it runs like this: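 HEK-Gα16 cells stably expressing human FPR2, loaded with 2 μM Fluo-4 in HBSS/20 mM HEPES for 40 min at 37° C., then washed. Ligands added in HBSS/Hepes and Ca+2 responses recorded on FLIPR in relative fluorescence units.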

The test system of a further test is corneal epithelial wound. The test can be described thus: Alkali burn corneal wound in rabbits. Format: in vivo. To be noted: FIG. 3; rabbit model, b270 says mouse models; topical three times a day. From the text: Alkali burn in rabbits: Corneal epithelium plays an important role in the maintenance of corneal function and integrity. Prolonged corneal epithelial defects causes corneal opacity, neovascularization, bacterial infection and visual loss. Corneal epithelial healing is a complex process involving inflammatory response to injury, cell proliferation and migration. Animal models of corneal injury are every useful to test new anti-inflammatory and pro-wound healing therapies. New Zealand White rabbits weighing between 2.1 and 2.5 kg were anesthetized systemically with Ketamine/Xylazine (35/5 mg/kg) subcutaneously and topically with proparacaine (0.5%). The corneal epithelial wound in one eye was induced with a NaOH saturated filter paper containing 1.0 N NaOH for 30 seconds. The eyes were rinsed with sterile PBS. The corneal wound was confirmed by fluorescein staining with 10% sodium fluorescein (Science Lab Com) and slit lamp photography. Test compounds were formulated in the vehicle described above. For initial studies compounds were topically dosed three times a day. Quantification of corneal wound areas was done using Image J software where fluorescing stain green part was traced and converted to total pixel.

Where only a bound is given, the exact number is not on record here.

For orientation: EC50 means the concentration giving half of the maximal effect. Read a low EC50 as higher potency in that assay.

T1 sequence (P25090 whole entry): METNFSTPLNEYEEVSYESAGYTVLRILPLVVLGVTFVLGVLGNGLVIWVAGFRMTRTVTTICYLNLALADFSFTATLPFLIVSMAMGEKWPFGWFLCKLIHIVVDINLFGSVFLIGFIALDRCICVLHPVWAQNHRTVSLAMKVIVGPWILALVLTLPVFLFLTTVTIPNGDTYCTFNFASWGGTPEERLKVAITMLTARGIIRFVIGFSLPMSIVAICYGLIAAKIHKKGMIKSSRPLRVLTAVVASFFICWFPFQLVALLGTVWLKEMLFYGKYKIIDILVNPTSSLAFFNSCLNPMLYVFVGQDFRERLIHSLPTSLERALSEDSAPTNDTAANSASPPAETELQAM

On to `CC1(CCc2ccccc2)NC(=O)N(NC(=O)Nc2ccccc2)C1=O` (centres unmarked) [1-[4-methyl-2,5-dioxo-4-(2-phenylethyl)imidazolidin-1-yl]-3-phenylurea], for which, on FPR2 [1], the EC50 was 223 nM and the “FPR2 Ga16-CHO (efficacy)” value is listed as “nM (1.0)”. Take `CCC1(CC)NC(=O)N(CC(=O)Nc2ccc(F)cc2)C1=O` [2-(4,4-diethyl-2,5-dioxoimidazolidin-1-yl)-N-(4-fluorophenyl)acetamide]: on FPR2 [1], the EC50 is 2770 nM and the “FPR2 Ga16-CHO (efficacy)” value is “nM (0.67)”. For `COc1ccc(NC(=O)NC(Cc2ccccc2)C(=O)O)cc1OC` (centres unmarked) [2-({[(3,4-dimethoxyphenyl)amino]carbonyl}amino)-3-phenylpropanoic acid] the same measures were 2790 nM and “nM (0.72)”. With `O=C(Nc1ccc(Br)cc1)NC(Cc1c[nH]c2ccccc12)C(=O)O` (centres unmarked) [2-({[(4-bromophenyl)amino]carbonyl}amino)-3-(1H-indol-3-yl)propanoic acid], at FPR2 [1], a half-maximal response (EC50) required 67 nM and the “FPR2 Ga16-CHO (efficacy)” value is reported as “nM (0.89)”. For `O=C(Nc1ccc(Cl)cc1)NC(Cc1ccccc1)C(=O)O` (centres unmarked) [2-({[(4-chlorophenyl)amino]carbonyl}amino)-3-phenylpropanoic acid] the same measures were 110 nM and “nM (1.0)”. For `O=C(Nc1ccc(OC(F)(F)F)cc1)NC(Cc1ccccc1)C(=O)O` (centres unmarked) [3-phenyl-2-[({[4-(trifluoromethoxy)phenyl]amino}carbonyl)amino]propanoic acid] the same measures were 1570 nM and “nM (0.79)”. At FPR2 [1], `O=C(Nc1cccnc1)NC(Cc1ccccc1)C(=O)O` (centres unmarked) [3-phenyl-2-{[(pyridin-3-ylamino)carbonyl]amino}propanoic acid] had a 50% effective concentration (EC50) of more than 10000 nM. With `O=C(Nc1ccc(Br)cc1)N[C@H](Cc1ccccc1)C(=O)O` [(2R)-2-({[(4-bromophenyl)amino]carbonyl}amino)-3-phenylpropanoic acid], on FPR2 [1], the EC50 was found to be 1820 nM and the “FPR2 Ga16-CHO (efficacy)” value is on record as “nM (0.99)”. Turning to `O=C(Nc1ccc(Cl)c(Cl)c1)N[C@@H](Cc1ccccc1)C(=O)O` [(2S)-2-({[(3,4-dichlorophenyl)amino]carbonyl}amino)-3-phenylpropanoic acid], the “FPR2 Ga16-CHO (efficacy)” value on FPR2 [1] was “μM (0.57)”. Consider `CC(C)[C@H](NC(=O)Nc1ccc(Br)cc1F)C(=O)O` [(2S)-2-({[(4-bromo-2-fluorophenyl)amino]carbonyl}amino)-3-methylbutanoic acid], for which, on FPR2 [1], it took 152 nM to reach a half-maximal effect (EC50) and the “FPR2 Ga16-CHO (efficacy)” value was “nM (0.91)”. The matching figures for `CC(C)[C@H](NC(=O)Nc1ccc(Br)cc1)C(=O)O` [(2S)-2-({[(4-bromophenyl)amino]carbonyl}amino)-3-methylbutanoic acid]: 72 nM and “nM (0.91)”. For `O=C(Nc1ccc(Br)cc1)N[C@@H](Cc1ccccc1)C(=O)O` [(2S)-2-({[(4-bromophenyl)amino]carbonyl}amino)-3-phenylpropanoic acid] the same measures were 31 nM and “nM (1.0)”. The matching figures for `COc1ccc(NC(=O)N[C@@H](Cc2ccccc2)C(=O)O)cc1` [(2S)-2-({[(4-methoxyphenyl)amino]carbonyl}amino)-3-phenylpropanoic acid]: 1750 nM and “nM (0.90)”. Consider `O=C(Nc1ccc([N+](=O)[O-])cc1)N[C@@H](Cc1ccccc1)C(=O)O` [(2S)-2-({[(4-nitrophenyl)amino]carbonyl}amino)-3-phenylpropanoic acid], for which the “FPR2 Ga16-CHO (efficacy)” value on FPR2 [1] is reported as “nM (0.82)”.

Regarding `O=C(Nc1ccc(C(F)(F)F)cc1)N[C@@H](Cc1ccccc1)C(=O)O` [(2S)-3-phenyl-2-[({[4-(trifluoromethyl)phenyl]amino}carbonyl)amino]propanoic acid], at FPR2 [1], a half-maximal response (EC50) required 120 nM and the “FPR2 Ga16-CHO (efficacy)” value is given as “nM (0.97)”. The matching figures for `O=C(Nc1ccc(Br)cc1)N[C@H](C(=O)O)c1ccccc1` [(2S)-({[(4-bromophenyl)amino]carbonyl}amino) (phenyl)acetic acid]: 25.8 nM and “nM (0.94)”. Take `CC[C@H](C)[C@H](NC(=O)Nc1ccc(Br)cc1)C(=O)NCC(=O)O` [Compound 3, {[(2S,3S)-2-{[(4-bromophenyl)carbamoyl]amino}-3-methylpentanoyl]amino}acetic acid]: at FPR2 [2], the “FPR2 (efficacy)” value is “(1.0)”. In addition, the EC50 on FPR2 [2] (unit inferred) was determined as 1.98 nM. In the test with corneal epithelial wound, the “healing and re-epithelialization of corneal wound” value is “accelerated healing and re-epithelialization”. `CC[C@H](C)[C@H](NC(=O)Nc1ccc(Br)cc1)C(=O)O` [Compound 53, (2S,3S)-2-{[(4-bromophenyl)carbamoyl]amino}-3-methylpentanoic acid]: the “FPR2 Ga16-CHO (efficacy)” value on FPR2 [1] is reported as “nM (0.89)”. Also, the “FPR2 (efficacy)” value on FPR2 [2] is recorded as “nM (0.9)”.

As to `O=C(CN1C(=O)C2CC=CCC2C1=O)Nc1ccc(Br)cc1` (centres unmarked) [N-(4-bromophenyl)-1,3,3a,4,7,7a-hexahydro-1,3-dioxo-2H-isoindole-2-acetamide], the “FPR2 Ga16-CHO (efficacy)” value at FPR2 [1] is reported as “(0.98)”. Same read-out and setting: in the case of `O=C(CN1C(=O)C2C3C=CC(C3)C2C1=O)Nc1ccc(Br)cc1` (centres unmarked) [N-(4-bromophenyl)-1,3,3a,4,7,7a-hexahydro-1,3-dioxo-4,7-methano-2H-isoindole-2-acetamide] it was “(0.90)”. With `O=C(CN1C(=O)NC2(CCCC2)C1=O)Nc1ccc(Br)cc1` [N-(4-bromophenyl)-2-(2,4-dioxo-1,3-diazaspiro[4.4]non-3-yl)acetamide], at FPR2 [1], the EC50 was 322 nM and the “FPR2 Ga16-CHO (efficacy)” value is recorded as “nM (0.96)”. The matching figures for `O=C(CN1C(=O)NC2(CCCCC2)C1=O)Nc1ccc(Br)cc1` [N-(4-bromophenyl)-2-(2,4-dioxo-1,3-diazaspiro[4.5]dec-3-yl)acetamide]: 738 nM and “nM (0.89)”. On to `O=C(CN1C(=O)NC2(CCCCCC2)C1=O)Nc1ccc(Br)cc1` [N-(4-bromophenyl)-2-(2,4-dioxo-1,3-diazaspiro[4.6]undec-3-yl)acetamide], for which, on FPR2 [1], a half-maximal response (EC50) required 679 nM and the “FPR2 Ga16-CHO (efficacy)” value is given as “nM (0.96)”.

`CCCC1(CCC)NC(=O)N(CC(=O)Nc2ccc(Br)cc2)C1=O` [N-(4-bromophenyl)-2-(2,5-dioxo-4,4-dipropylimidazolidin-1-yl)acetamide]: on FPR2 [1], the concentration giving a half-maximal response (EC50) stood at 645 nM and the “FPR2 Ga16-CHO (efficacy)” value is listed as “nM (0.98)”.

With `CCC1(CC)NC(=O)N(CC(=O)Nc2ccc(Br)cc2)C1=O` [N-(4-bromophenyl)-2-(4,4-diethyl-2,5-dioxoimidazolidin-1-yl)acetamide], on FPR2 [1], the EC50 came to 96 nM and the “FPR2 Ga16-CHO (efficacy)” value was “nM (0.98)”.

Take `CC1(C)NC(=O)N(CC(=O)Nc2ccc(Br)cc2)C1=O` [N-(4-bromophenyl)-2-(4,4-dimethyl-2,5-dioxoimidazolidin-1-yl)acetamide]: at FPR2 [1], the EC50 was 719 nM and the “FPR2 Ga16-CHO (efficacy)” value is “nM (0.94)”.

As for `CC1(C2CC2)NC(=O)N(CC(=O)Nc2ccc(Br)cc2)C1=O` (centres unmarked) [N-(4-bromophenyl)-2-(4-cyclopropyl-4-methyl-2,5-dioxoimidazolidin-1-yl)acetamide], at FPR2 [1], the EC50 came out at 166 nM and the “FPR2 Ga16-CHO (efficacy)” value is recorded as “nM (0.84)”. For `CCC1(c2ccccc2)NC(=O)N(CC(=O)Nc2ccc(Br)cc2)C1=O` (centres unmarked) [N-(4-bromophenyl)-2-(4-ethyl-2,5-dioxo-4-phenylimidazolidin-1-yl)acetamide] the same measures were 523 nM and “nM (0.83)”. The matching figures for `CCC1(C)NC(=O)N(CC(=O)Nc2ccc(Br)cc2)C1=O` (centres unmarked) [N-(4-bromophenyl)-2-(4-ethyl-4-methyl-2,5-dioxoimidazolidin-1-yl)acetamide]: 485 nM and “nM (1.0)”. For `CCC1(CC)NC(=O)N(CC(=O)Nc2ccc(Cl)cc2)C1=O` [N-(4-chlorophenyl)-2-(4,4-diethyl-2,5-dioxoimidazolidin-1-yl)acetamide] the same measures were 314 nM and “nM (0.79)”.
